The source of these data is paper PMC7951571 (Heliyon, 2021).

The target in data set [1] is recombinant human ACE2 (rhACE2) (Homo sapiens, UniProt Q9BYF1). In words: ACE2 inhibitor screening assay. Type of data set: biochemical.
Data set [2] concerns the target rhACE2 - SARS-CoV-2 Spike (RBD) protein interaction (Homo sapiens, UniProt Q9BYF1). In words: biochemical. It counts as binding, human; SARS-CoV-2.
Data set [3] deals with Vero E6 cells. To be noted: for Concentration at Maximum % Viability: monkey.
A short description of data set [4]: in vitro. To be noted: African green monkey.
Data set [5] has as its system SARS-CoV-2 USA_WA1/2020. It counts as cell-based.
For data set [6], the system named is ACE2-Spike interaction (SARS-CoV, SARS-CoV2, NL63S). To be noted: cited from earlier work.
Setting [7] is: Spike (RBD)-ACE2 Interaction Assay IC50_1.
[8] abbreviates: Spike (RBD)-ACE2 Interaction Assay IC50_2.

SMILES strings stand for the structures. Where two headings read alike, the source gives them in different places. Residues, ends and D or L forms follow the SMILES beside them. *: point of attachment. Cbz = O=C(OCc1ccccc1)*; CH2F = FC*

Chain of rhACE2 - SARS-CoV-2 Spike (RBD) protein interaction (Q9BYF1 18-740): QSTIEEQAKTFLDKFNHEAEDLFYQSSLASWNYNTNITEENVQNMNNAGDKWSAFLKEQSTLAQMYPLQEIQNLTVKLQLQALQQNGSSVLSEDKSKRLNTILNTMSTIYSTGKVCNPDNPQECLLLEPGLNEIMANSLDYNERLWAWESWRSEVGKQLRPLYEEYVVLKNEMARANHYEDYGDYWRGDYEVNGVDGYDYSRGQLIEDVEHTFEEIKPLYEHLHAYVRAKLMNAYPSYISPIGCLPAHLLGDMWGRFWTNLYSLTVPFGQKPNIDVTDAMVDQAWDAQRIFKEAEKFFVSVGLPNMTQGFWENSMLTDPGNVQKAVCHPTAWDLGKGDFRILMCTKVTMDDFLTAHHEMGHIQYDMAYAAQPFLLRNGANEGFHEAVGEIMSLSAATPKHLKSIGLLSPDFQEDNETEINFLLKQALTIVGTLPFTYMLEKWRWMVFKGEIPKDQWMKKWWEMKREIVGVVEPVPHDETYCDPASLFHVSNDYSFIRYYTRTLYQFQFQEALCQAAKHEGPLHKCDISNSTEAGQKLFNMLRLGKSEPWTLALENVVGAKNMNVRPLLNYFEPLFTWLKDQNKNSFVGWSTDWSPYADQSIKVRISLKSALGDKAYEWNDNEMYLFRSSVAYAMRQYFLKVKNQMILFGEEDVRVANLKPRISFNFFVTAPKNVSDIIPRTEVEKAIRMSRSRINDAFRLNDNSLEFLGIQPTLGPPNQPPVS
Chain of recombinant human ACE2 (rhACE2) (Q9BYF1 18-805): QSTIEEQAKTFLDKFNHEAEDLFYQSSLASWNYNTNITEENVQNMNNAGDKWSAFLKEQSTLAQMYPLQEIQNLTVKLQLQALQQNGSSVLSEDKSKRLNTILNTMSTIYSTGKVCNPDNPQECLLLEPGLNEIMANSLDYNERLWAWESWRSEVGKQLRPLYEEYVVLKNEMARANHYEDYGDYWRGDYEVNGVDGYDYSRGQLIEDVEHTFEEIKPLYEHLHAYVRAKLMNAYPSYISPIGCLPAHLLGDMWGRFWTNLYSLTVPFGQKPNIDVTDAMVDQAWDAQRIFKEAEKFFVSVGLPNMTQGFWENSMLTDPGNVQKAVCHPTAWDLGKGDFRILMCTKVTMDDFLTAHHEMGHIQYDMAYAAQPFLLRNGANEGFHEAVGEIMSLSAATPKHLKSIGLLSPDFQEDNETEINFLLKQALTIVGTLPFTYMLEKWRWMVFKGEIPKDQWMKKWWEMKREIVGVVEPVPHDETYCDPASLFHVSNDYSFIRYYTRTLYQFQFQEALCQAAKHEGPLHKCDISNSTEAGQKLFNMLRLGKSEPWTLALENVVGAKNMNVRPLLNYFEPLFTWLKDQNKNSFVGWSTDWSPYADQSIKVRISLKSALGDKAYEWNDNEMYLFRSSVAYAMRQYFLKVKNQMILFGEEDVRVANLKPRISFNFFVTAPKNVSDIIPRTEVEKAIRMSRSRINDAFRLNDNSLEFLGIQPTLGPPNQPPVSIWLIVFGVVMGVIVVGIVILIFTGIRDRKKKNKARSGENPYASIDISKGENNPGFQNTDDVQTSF

For the molecule `Oc1c(Br)cc(Cl)c2cccnc12` [CLBQ14, 7-bromo-5-chloro-8-hydroxyquinoline], the IC50 in data set [1] was 5.55 µM; in data set [2] (setting [7]), 2.76 µM; in data set [2] (setting [8]), 3.06 µM. Moreover, the “Concentration at Minimum % Viability” value in data set [3] (African green monkey) turned out to be 15000 nM. Also, the “Concentration at Maximum % Viability” value in data set [3] is 120 nM. The same molecule displayed a CC50 in data set [4] of over 30 µM. For the same molecule, the viability in data set [4] (Maximum Viability (%)) stood at 108%; in data set [4] (Minimum Viability (%)), 53.5%.

For the molecule `Oc1c(Cl)cc(Cl)c2cccnc12` [CLCQ, 5,7-dichloro-8-hydroxyquinoline], the IC50 in data set [1] is under 10 µM; in data set [2] (setting [7]) it was 1.74 µM; in data set [2] (setting [8]) it was 1.91 µM. For the same molecule, in data set [3] (African green monkey), the “Concentration at Minimum % Viability” value was 15000 nM. Besides, the “Concentration at Maximum % Viability” value in data set [3] was 60 nM. Further, the CC50 in data set [4] is over 30 µM. In addition, the viability in data set [4] (Maximum Viability (%)) was 102%; in data set [4] (Minimum Viability (%)) it was 60.8%.

Regarding `Oc1c(I)cc(Cl)c2cccnc12` [CLQ, 5-chloro-7-iodo-8-quinolinol], in data set [2] (setting [7]), the IC50 is 0.85 µM. The “Concentration at Minimum % Viability” value in data set [3] (African green monkey) is 30000 nM. In data set [3], the “Concentration at Maximum % Viability” value came to 230 nM. The molecule also returned a CC50 in data set [4] of over 30 µM. In addition, the results for the viability in data set [4] (Maximum Viability (%)) and in data set [4] (Minimum Viability (%)) were 106% and 61.8%, respectively.

As to `CC(C)C[C@H](NC(=O)OCc1ccccc1)C(=O)N[C@@H](CC(C)C)C(=O)N[C@@H](Cc1ccc(O)cc1)C(=O)CF` [Calpain Inhibitor IV] (Cbz-Leu-Leu-Tyr-CH2F), the “Maximum Inhibition (%)” value in data set [5] was determined as 95.75%. Further, in data set [5] (read-out: IC50, SARS-CoV-2 induced CPE), the IC50 was determined as 0.41 µM. Further, in data set [3], the CC50 was over 7.17 µM, the “Concentration at Minimum % Viability” value was 3590 nM, the “Maximum Viability (%)” value is on record as 104.99% and the “Minimum Viability (%)” value came to 98.29%. In addition, the “Concentration at Maximum % Viability” value in data set [3] amounted to 220 nM.

In the case of `CCN(CC)CCCC(C)Nc1ccnc2cc(Cl)ccc12` (stereo not shown) [Chloroquine], in data set [5], the “Maximum Inhibition (%)” value turned out to be 111.08%. The “Concentration at Minimum % Viability” value in data set [3] (African green monkey) was determined as 15000 nM. Moreover, the “Concentration at Maximum % Viability” value in data set [3] came out at 60 nM. The same molecule displayed a CC50 in data set [4] of over 30 µM. The values for the viability in data set [4] (Maximum Viability (%)) and in data set [4] (Minimum Viability (%)) were 107% and 95.6%, respectively.

Consider `CCOC(=O)[C@H]1O[C@@H]1C(=O)N[C@@H](CC(C)C)C(=O)NCCC(C)C` [E64d (Aloxistatin), Aloxistatin], for which the “Maximum Inhibition (%)” value in data set [5] is given as 98.55%. Also, the “Concentration at Minimum % Viability” value in data set [3] (African green monkey) is 15000 nM. In addition, the “Concentration at Maximum % Viability” value in data set [3] worked out at 120 nM. Besides, the CC50 in data set [4] is over 30 µM. Besides, the values for the viability in data set [4] (Maximum Viability (%)) and in data set [4] (Minimum Viability (%)) were 113% and 100%, respectively.

With `CCN(CCO)CCCC(C)Nc1ccnc2cc(Cl)ccc12` (stereo not shown) [Hydroxychloroquine], the “Maximum Inhibition (%)” value in data set [5] is given as 93.14%. In addition, the “Concentration at Minimum % Viability” value in data set [3] (African green monkey) was 3750 nM. Further, the “Concentration at Maximum % Viability” value in data set [3] was 60 nM. In data set [4], this molecule yielded a CC50 of over 30 µM. For the same molecule, the viability in data set [4] (Maximum Viability (%)) was 104%; in data set [4] (Minimum Viability (%)), 96.9%.

For the molecule `CC(C)C[C@H](N[C@@H](Cc1cncn1Cc1cc(Cl)cc(Cl)c1)C(=O)O)C(=O)O` [MLN-4760, (S,S)-2-{1-Carboxy-2-[3-(3,5-dichloro-benzyl)-3H-imidazol-4-yl]-ethylamino}-4-methyl-pentanoic acid], in data set [6], the “disruption of ACE2-Spike interaction” value was “does not disrupt ACE2-Spike interaction”.

As to `CCC(CC)COC(=O)[C@H](C)N[P@](=O)(OC[C@H]1O[C@@](C#N)(c2ccc3c(N)ncnn23)[C@H](O)[C@@H]1O)Oc1ccccc1` [Remdesivir], the “Maximum Inhibition (%)” value in data set [5] is on record as 100.27%. For the same molecule, the “Concentration at Minimum % Viability” value in data set [3] (African green monkey) amounted to 3750 nM. In addition, the “Concentration at Maximum % Viability” value in data set [3] was found to be 60 nM. Further, the CC50 in data set [4] is over 30 µM. The viability was 104% in data set [4] (Maximum Viability (%)) and 97.5% in data set [4] (Minimum Viability (%)).

Consider `[Cl-].[Cl-].[Zn+2]` [ZnCl2, Zinc Chloride], for which the “exopeptidase activity of rhACE2 in the presence of ZnCl2 alone” value in data set [1] (100μM to 100nM) is reported as “increasing exopeptidase activity”.

For orientation: IC50 means the concentration that inhibits the measured activity by half. For orientation: viability means a read-out of living cells in per cent, often relative to untreated cells.
